Columns and labels:
Experiment in all cases: Selectivity profiling, QuickScout TK Screening Panel
Assay type in all cases: biochemical
EphA2 = target: T1, EphA2 (Homo sapiens, UniProt P29317)
T1 construct: purchased Carna Biosciences
Procedure: (§1) The inhibitory effects of Compound 1 against 20 tyrosine kinases and 30 serine/threonine kinases were investigated using QuickScout™ TK and STK Screening Panel (Carna Biosciences, Kobe Japan). […] The results reveal that Compound 1 inhibits TNIK_N more potently (IC50; 9 nM) than the other 50 kinases.

EphB4 = target: T2, EphB4 (Homo sapiens, UniProt P54760)
T2 construct: purchased Carna Biosciences
Procedure: as §1

ITK = target: T3, ITK (Homo sapiens, UniProt Q08881)
T3 construct: purchased Carna Biosciences
Procedure: as §1

PYK2 = target: T4, PYK2 (Homo sapiens, UniProt Q14289)
T4 construct: purchased Carna Biosciences
Procedure: as §1

SYK = target: T5, SYK (Homo sapiens, UniProt P43405)
T5 construct: purchased Carna Biosciences
Procedure: as §1

TYRO3 = target: T6, TYRO3 (Homo sapiens, UniProt Q06418)
T6 construct: purchased Carna Biosciences
Procedure: as §1

Measured: IC50

T1 sequence (P29317 24-976): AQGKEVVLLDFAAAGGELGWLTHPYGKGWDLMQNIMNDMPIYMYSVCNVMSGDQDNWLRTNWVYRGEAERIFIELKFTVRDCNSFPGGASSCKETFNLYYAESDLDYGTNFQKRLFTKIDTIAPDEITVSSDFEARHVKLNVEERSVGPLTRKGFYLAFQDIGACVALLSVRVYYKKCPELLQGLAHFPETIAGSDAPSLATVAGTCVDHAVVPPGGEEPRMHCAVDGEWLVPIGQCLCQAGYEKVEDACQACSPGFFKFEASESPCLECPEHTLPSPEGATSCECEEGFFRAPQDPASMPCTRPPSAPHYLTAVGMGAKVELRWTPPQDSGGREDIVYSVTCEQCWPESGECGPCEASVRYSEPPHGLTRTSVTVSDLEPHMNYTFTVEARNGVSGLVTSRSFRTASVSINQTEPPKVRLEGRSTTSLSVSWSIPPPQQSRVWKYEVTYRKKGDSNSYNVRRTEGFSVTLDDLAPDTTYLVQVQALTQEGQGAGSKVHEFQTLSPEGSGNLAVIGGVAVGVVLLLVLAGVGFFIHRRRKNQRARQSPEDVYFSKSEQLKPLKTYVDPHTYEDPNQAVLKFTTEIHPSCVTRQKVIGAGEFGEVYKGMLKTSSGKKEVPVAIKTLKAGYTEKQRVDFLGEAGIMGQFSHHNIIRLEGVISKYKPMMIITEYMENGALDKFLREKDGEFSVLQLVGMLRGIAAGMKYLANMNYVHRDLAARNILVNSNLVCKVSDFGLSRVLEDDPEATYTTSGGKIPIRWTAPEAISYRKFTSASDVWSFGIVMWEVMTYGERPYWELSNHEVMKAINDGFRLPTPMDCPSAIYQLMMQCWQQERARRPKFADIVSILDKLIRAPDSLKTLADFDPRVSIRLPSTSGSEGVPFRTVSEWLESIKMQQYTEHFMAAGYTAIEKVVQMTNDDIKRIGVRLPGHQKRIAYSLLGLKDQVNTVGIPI
T2 sequence (P54760 16-987): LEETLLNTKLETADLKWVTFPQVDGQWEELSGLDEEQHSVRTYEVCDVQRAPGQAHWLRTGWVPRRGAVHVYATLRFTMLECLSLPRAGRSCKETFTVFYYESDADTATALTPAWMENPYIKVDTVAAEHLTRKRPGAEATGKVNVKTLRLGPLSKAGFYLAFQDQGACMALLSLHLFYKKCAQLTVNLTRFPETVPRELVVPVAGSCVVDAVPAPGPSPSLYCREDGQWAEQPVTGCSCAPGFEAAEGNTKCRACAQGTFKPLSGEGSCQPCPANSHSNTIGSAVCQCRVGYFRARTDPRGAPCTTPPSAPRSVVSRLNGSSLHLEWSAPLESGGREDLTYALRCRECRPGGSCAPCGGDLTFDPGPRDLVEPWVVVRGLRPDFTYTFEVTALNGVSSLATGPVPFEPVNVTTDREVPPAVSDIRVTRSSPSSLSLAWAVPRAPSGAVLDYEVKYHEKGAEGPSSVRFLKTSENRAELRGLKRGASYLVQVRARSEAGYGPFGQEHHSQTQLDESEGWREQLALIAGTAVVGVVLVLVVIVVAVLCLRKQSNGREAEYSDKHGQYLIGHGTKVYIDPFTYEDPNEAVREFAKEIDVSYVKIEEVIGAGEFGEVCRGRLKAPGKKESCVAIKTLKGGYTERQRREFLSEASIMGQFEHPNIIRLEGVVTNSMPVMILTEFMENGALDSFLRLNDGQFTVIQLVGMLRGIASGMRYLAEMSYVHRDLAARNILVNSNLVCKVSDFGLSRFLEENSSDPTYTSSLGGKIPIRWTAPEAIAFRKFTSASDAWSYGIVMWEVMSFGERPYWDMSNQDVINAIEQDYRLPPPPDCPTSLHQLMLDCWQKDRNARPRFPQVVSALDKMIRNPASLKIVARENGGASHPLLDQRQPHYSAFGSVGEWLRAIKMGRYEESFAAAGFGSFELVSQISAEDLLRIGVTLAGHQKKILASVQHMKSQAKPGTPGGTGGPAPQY
T6 sequence (Q06418 41-890): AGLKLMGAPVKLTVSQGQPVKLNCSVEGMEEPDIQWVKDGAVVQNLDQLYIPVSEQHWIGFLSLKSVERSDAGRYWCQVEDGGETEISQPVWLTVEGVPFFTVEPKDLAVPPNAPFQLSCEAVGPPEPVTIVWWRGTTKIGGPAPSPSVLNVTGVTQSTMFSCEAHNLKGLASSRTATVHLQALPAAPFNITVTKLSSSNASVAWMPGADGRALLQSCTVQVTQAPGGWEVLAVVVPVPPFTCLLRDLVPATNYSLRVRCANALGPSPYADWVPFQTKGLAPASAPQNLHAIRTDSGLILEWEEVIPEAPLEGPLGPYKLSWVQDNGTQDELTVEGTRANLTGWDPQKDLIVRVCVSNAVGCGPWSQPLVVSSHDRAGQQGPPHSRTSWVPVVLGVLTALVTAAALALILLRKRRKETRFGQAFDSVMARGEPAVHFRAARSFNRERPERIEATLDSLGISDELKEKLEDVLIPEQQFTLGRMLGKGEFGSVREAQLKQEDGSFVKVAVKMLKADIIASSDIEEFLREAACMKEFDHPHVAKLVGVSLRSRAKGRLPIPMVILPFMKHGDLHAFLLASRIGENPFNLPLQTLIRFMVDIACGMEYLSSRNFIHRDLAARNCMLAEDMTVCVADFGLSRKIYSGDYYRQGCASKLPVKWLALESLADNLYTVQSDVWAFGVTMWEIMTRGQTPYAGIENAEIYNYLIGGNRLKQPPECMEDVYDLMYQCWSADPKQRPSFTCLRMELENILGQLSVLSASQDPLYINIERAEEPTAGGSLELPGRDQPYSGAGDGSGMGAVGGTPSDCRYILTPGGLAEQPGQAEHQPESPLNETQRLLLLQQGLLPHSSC
T3 sequence (Q08881 whole entry): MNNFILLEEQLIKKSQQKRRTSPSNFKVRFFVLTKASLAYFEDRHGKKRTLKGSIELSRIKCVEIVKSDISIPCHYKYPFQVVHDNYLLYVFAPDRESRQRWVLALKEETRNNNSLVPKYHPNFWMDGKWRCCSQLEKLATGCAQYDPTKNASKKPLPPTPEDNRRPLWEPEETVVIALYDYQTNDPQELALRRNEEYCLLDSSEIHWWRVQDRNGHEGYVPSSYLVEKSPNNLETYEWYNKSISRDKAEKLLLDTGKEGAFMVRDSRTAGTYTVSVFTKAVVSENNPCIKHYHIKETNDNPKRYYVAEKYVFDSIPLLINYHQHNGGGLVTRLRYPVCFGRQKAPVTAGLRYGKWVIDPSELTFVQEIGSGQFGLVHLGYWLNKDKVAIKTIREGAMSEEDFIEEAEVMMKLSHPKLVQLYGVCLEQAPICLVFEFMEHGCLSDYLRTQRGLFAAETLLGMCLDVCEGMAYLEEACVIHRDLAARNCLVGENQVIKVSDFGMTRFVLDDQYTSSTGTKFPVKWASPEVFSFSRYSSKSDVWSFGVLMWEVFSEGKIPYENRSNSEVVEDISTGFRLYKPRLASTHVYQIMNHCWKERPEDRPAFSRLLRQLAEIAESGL
T4 sequence (Q14289 whole entry): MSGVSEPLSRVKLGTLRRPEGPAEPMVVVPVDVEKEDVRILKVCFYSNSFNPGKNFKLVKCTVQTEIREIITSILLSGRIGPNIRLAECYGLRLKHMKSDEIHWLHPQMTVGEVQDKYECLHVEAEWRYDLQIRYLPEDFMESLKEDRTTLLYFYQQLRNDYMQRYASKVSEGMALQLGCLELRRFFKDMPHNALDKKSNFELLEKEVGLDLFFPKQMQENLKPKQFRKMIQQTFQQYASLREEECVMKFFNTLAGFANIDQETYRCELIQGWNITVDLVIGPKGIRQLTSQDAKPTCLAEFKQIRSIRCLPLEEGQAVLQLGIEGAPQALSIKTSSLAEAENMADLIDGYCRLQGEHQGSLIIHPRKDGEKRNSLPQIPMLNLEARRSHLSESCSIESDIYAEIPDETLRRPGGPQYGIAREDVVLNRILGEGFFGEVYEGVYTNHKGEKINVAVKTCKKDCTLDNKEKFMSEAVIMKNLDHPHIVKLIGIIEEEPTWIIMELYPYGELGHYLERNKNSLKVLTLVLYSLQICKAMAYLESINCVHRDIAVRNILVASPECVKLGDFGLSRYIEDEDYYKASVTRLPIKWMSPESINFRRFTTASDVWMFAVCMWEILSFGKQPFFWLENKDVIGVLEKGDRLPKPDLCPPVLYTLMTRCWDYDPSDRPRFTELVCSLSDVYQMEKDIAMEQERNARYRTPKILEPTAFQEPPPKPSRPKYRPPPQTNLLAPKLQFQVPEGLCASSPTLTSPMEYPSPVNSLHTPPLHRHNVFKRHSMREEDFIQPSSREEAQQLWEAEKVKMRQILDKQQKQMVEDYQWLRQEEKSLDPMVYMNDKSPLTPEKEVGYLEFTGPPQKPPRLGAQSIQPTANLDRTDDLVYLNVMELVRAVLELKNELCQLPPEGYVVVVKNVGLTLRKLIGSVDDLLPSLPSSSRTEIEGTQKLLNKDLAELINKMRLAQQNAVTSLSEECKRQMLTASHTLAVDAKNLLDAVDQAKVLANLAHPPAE

CC(=O)Nc1ccc(C(=O)Nc2sc(Nc3ccccc3)nc2C(N)=O)cc1 [Compound 1, 5-(4-acetamidobenzamido)-2-(phenylamino)thiazole-4-carboxamide]
> 300 nM: all assays above
